Measured values reported in PubChem BioAssay (NCI).
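How tested: cells in 96-well plates exposed to compound for 48 hours at five concentrations. GI50 = concentration required for 50% inhibition of growth. TGI marks complete inhibition of growth.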

Legend:
Assay in all cases: NCI-60 cell line screen, 48 h
HL-60(TB) leukemia = tested on: HL-60(TB) leukemia
MDA-MB-231 breast = tested on: MDA-MB-231 breast
DU-145 prostate = tested on: DU-145 prostate
SF-268 CNS = tested on: SF-268 CNS
HOP-92 NSCLC = tested on: HOP-92 NSCLC
HCT-116 colon = tested on: HCT-116 colon
HT29 colon = tested on: HT29 colon
OVCAR-4 ovarian = tested on: OVCAR-4 ovarian
T-47D breast = tested on: T-47D breast
SF-295 CNS = tested on: SF-295 CNS
CCRF-CEM leukemia = tested on: CCRF-CEM leukemia
MDA-MB-435 = tested on: MDA-MB-435
RXF 393 renal = tested on: RXF 393 renal
OVCAR-8 ovarian = tested on: OVCAR-8 ovarian
SK-MEL-5 melanoma = tested on: SK-MEL-5 melanoma
SNB-75 CNS = tested on: SNB-75 CNS
MCF7 breast = tested on: MCF7 breast
NCI-H522 lung = tested on: NCI-H522 lung
MDA-N = tested on: MDA-N
K-562 leukemia = tested on: K-562 leukemia
NCI-H23 lung = tested on: NCI-H23 lung
TK-10 renal = tested on: TK-10 renal
HCC-2998 colon = tested on: HCC-2998 colon
SNB-19 CNS = tested on: SNB-19 CNS
A498 renal = tested on: A498 renal
UO-31 renal = tested on: UO-31 renal
KM12 colon = tested on: KM12 colon
A549 NSCLC = tested on: A549 NSCLC
NCI-H226 lung = tested on: NCI-H226 lung
COLO 205 colon = tested on: COLO 205 colon
UACC-257 melanoma = tested on: UACC-257 melanoma
MOLT-4 leukemia = tested on: MOLT-4 leukemia
PC-3 prostate = tested on: PC-3 prostate
HS 578T breast = tested on: HS 578T breast
SW-620 colon = tested on: SW-620 colon
U251 CNS = tested on: U251 CNS
LOX IMVI melanoma = tested on: LOX IMVI melanoma
SK-OV-3 ovarian = tested on: SK-OV-3 ovarian
HCT-15 colon = tested on: HCT-15 colon
M14 melanoma = tested on: M14 melanoma
SR leukemia = tested on: SR leukemia
SK-MEL-28 melanoma = tested on: SK-MEL-28 melanoma
SN12C renal = tested on: SN12C renal
NCI/ADR-RES ovarian = tested on: NCI/ADR-RES ovarian
ACHN renal = tested on: ACHN renal
NCI-H460 lung = tested on: NCI-H460 lung
OVCAR-3 ovarian = tested on: OVCAR-3 ovarian
UACC-62 melanoma = tested on: UACC-62 melanoma
SK-MEL-2 melanoma = tested on: SK-MEL-2 melanoma
SF-539 CNS = tested on: SF-539 CNS
EKVX NSCLC = tested on: EKVX NSCLC
CAKI-1 renal = tested on: CAKI-1 renal
OVCAR-5 ovarian = tested on: OVCAR-5 ovarian
MALME-3M melanoma = tested on: MALME-3M melanoma
786-0 renal = tested on: 786-0 renal
RPMI-8226 leukemia = tested on: RPMI-8226 leukemia
HOP-62 NSCLC = tested on: HOP-62 NSCLC
BT-549 breast = tested on: BT-549 breast
IGROV1 ovarian = tested on: IGROV1 ovarian

In the case of `CC1(C)OCC(CO)(CO)CO1`, the TGI (HL-60(TB) leukemia) is reported as greater than 100 µM, the TGI (MDA-MB-231 breast) is reported as greater than 100 µM and the TGI (DU-145 prostate) is reported as greater than 100 µM. For the same compound, the TGI (SF-268 CNS) was greater than 100 µM, the TGI (HOP-92 NSCLC) was greater than 100 µM and the TGI (HCT-116 colon) was greater than 100 µM. The TGI (HT29 colon) was greater than 100 µM, the TGI (OVCAR-4 ovarian) was greater than 100 µM and the TGI (T-47D breast) was greater than 100 µM. It also gave a TGI (SF-295 CNS) greater than 100 µM, a TGI (CCRF-CEM leukemia) greater than 100 µM and a TGI (MDA-MB-435) greater than 100 µM. For the same compound, the TGI (RXF 393 renal) was greater than 100 µM, the TGI (OVCAR-8 ovarian) was greater than 100 µM and the TGI (SK-MEL-5 melanoma) was greater than 100 µM. The TGI (SNB-75 CNS) was greater than 100 µM, the TGI (MCF7 breast) was greater than 100 µM and the TGI (NCI-H522 lung) was greater than 100 µM. For the same compound, the TGI (MDA-N) was greater than 100 µM, the TGI (K-562 leukemia) was greater than 100 µM and the TGI (NCI-H23 lung) was greater than 100 µM. The TGI (TK-10 renal) was greater than 100 µM, the TGI (HCC-2998 colon) was greater than 100 µM and the TGI (SNB-19 CNS) was greater than 100 µM. For the same compound, the TGI (A498 renal) was greater than 100 µM, the TGI (UO-31 renal) was greater than 100 µM and the TGI (KM12 colon) was greater than 100 µM. It also gave a TGI (A549 NSCLC) greater than 100 µM, a TGI (NCI-H226 lung) greater than 100 µM and a TGI (COLO 205 colon) greater than 100 µM. It also gave a TGI (UACC-257 melanoma) greater than 100 µM, a TGI (MOLT-4 leukemia) greater than 100 µM and a TGI (PC-3 prostate) greater than 100 µM. It also gave a TGI (HS 578T breast) greater than 100 µM, a TGI (SW-620 colon) greater than 100 µM and a TGI (U251 CNS) greater than 100 µM. For the same compound, the TGI (LOX IMVI melanoma) was greater than 100 µM, the TGI (SK-OV-3 ovarian) was greater than 100 µM and the TGI (HCT-15 colon) was greater than 100 µM. The TGI (M14 melanoma) was greater than 100 µM, the TGI (SR leukemia) was greater than 100 µM and the TGI (SK-MEL-28 melanoma) was greater than 100 µM. For the same compound, the TGI (SN12C renal) was greater than 100 µM, the TGI (NCI/ADR-RES ovarian) was greater than 100 µM and the TGI (ACHN renal) was greater than 100 µM. The TGI (NCI-H460 lung) was greater than 100 µM and the TGI (OVCAR-3 ovarian) was greater than 100 µM.

In the case of `Cn1c(CCCC(=O)O)nc2cc(N(CCCl)CCCl)ccc21`, the GI50 (HL-60(TB) leukemia) is reported as greater than 51.2 µM, the TGI (HL-60(TB) leukemia) is reported as greater than 85.3 µM and the GI50 (MDA-MB-231 breast) is reported as greater than 69.6 µM. The TGI (MDA-MB-231 breast) was greater than 100 µM, the GI50 (DU-145 prostate) was greater than 80.6 µM and the TGI (DU-145 prostate) was greater than 100 µM. For the same compound, the GI50 (SF-268 CNS) was 68.5 µM, the TGI (SF-268 CNS) was greater than 100 µM and the GI50 (HOP-92 NSCLC) was 33.5 µM. For the same compound, the TGI (HOP-92 NSCLC) was greater than 93.3 µM, the GI50 (HCT-116 colon) was greater than 80.5 µM and the TGI (HCT-116 colon) was greater than 100 µM. For the same compound, the GI50 (UACC-62 melanoma) was 52.5 µM, the TGI (UACC-62 melanoma) was greater than 100 µM and the GI50 (SK-MEL-2 melanoma) was greater than 100 µM. The TGI (SK-MEL-2 melanoma) was greater than 100 µM, the GI50 (HT29 colon) was greater than 100 µM and the TGI (HT29 colon) was greater than 100 µM. For the same compound, the GI50 (SF-539 CNS) was 65.1 µM, the TGI (SF-539 CNS) was greater than 94.1 µM and the GI50 (EKVX NSCLC) was greater than 100 µM. The TGI (EKVX NSCLC) was greater than 100 µM, the GI50 (OVCAR-4 ovarian) was greater than 100 µM and the TGI (OVCAR-4 ovarian) was greater than 100 µM. It also gave a GI50 (T-47D breast) of 56.2 µM, a TGI (T-47D breast) greater than 100 µM and a GI50 (SF-295 CNS) greater than 64.4 µM. The TGI (SF-295 CNS) was greater than 100 µM, the GI50 (CCRF-CEM leukemia) was 28.1 µM and the TGI (CCRF-CEM leukemia) was greater than 77.7 µM. For the same compound, the GI50 (MDA-MB-435) was greater than 75.5 µM, the TGI (MDA-MB-435) was greater than 100 µM and the GI50 (RXF 393 renal) was greater than 100 µM. It also gave a TGI (RXF 393 renal) greater than 100 µM, a GI50 (CAKI-1 renal) of 53.2 µM and a TGI (CAKI-1 renal) greater than 86.8 µM. For the same compound, the GI50 (OVCAR-8 ovarian) was greater than 91.2 µM, the TGI (OVCAR-8 ovarian) was greater than 100 µM and the GI50 (SK-MEL-5 melanoma) was greater than 71.6 µM. For the same compound, the TGI (SK-MEL-5 melanoma) was greater than 100 µM, the GI50 (SNB-75 CNS) was greater than 83.5 µM and the TGI (SNB-75 CNS) was greater than 100 µM. It also gave a GI50 (OVCAR-5 ovarian) greater than 100 µM, a TGI (OVCAR-5 ovarian) greater than 100 µM and a GI50 (MCF7 breast) of 69.2 µM. For the same compound, the TGI (MCF7 breast) was greater than 100 µM, the GI50 (NCI-H522 lung) was greater than 93 µM and the TGI (NCI-H522 lung) was greater than 100 µM. The GI50 (K-562 leukemia) was greater than 100 µM, the TGI (K-562 leukemia) was greater than 100 µM and the GI50 (NCI-H23 lung) was 74.9 µM. It also gave a TGI (NCI-H23 lung) greater than 100 µM, a GI50 (TK-10 renal) greater than 91.3 µM and a TGI (TK-10 renal) greater than 100 µM. For the same compound, the GI50 (HCC-2998 colon) was greater than 65.7 µM, the TGI (HCC-2998 colon) was greater than 100 µM and the GI50 (SNB-19 CNS) was 97.9 µM. For the same compound, the TGI (SNB-19 CNS) was greater than 100 µM, the GI50 (A498 renal) was greater than 32.6 µM and the TGI (A498 renal) was greater than 75 µM. The GI50 (UO-31 renal) was greater than 100 µM, the TGI (UO-31 renal) was greater than 100 µM and the GI50 (KM12 colon) was greater than 100 µM. For the same compound, the TGI (KM12 colon) was greater than 100 µM, the GI50 (A549 NSCLC) was greater than 100 µM and the TGI (A549 NSCLC) was greater than 100 µM. It also gave a GI50 (NCI-H226 lung) greater than 66.2 µM, a TGI (NCI-H226 lung) greater than 100 µM and a GI50 (MALME-3M melanoma) of 49.6 µM. It also gave a TGI (MALME-3M melanoma) greater than 100 µM, a GI50 (COLO 205 colon) greater than 95.8 µM and a TGI (COLO 205 colon) greater than 100 µM. The GI50 (UACC-257 melanoma) was greater than 94.7 µM, the TGI (UACC-257 melanoma) was greater than 100 µM and the GI50 (786-0 renal) was greater than 80.9 µM. It also gave a TGI (786-0 renal) greater than 100 µM, a GI50 (MOLT-4 leukemia) of 3.6 µM and a TGI (MOLT-4 leukemia) of 22.6 µM. The GI50 (RPMI-8226 leukemia) was greater than 85.3 µM, the TGI (RPMI-8226 leukemia) was greater than 100 µM and the GI50 (PC-3 prostate) was greater than 100 µM. The TGI (PC-3 prostate) was greater than 100 µM, the GI50 (HS 578T breast) was greater than 83.3 µM and the TGI (HS 578T breast) was greater than 100 µM. The GI50 (SW-620 colon) was 78.4 µM, the TGI (SW-620 colon) was greater than 100 µM and the GI50 (U251 CNS) was 72.7 µM. The TGI (U251 CNS) was greater than 100 µM, the GI50 (LOX IMVI melanoma) was greater than 58.8 µM and the TGI (LOX IMVI melanoma) was greater than 100 µM. It also gave a GI50 (SK-OV-3 ovarian) greater than 86.4 µM, a TGI (SK-OV-3 ovarian) greater than 100 µM and a GI50 (HCT-15 colon) greater than 100 µM. The TGI (HCT-15 colon) was greater than 100 µM, the GI50 (M14 melanoma) was greater than 65.5 µM and the TGI (M14 melanoma) was greater than 100 µM. For the same compound, the GI50 (HOP-62 NSCLC) was greater than 76.3 µM, the TGI (HOP-62 NSCLC) was greater than 100 µM and the GI50 (SR leukemia) was 40.4 µM. It also gave a TGI (SR leukemia) greater than 100 µM, a GI50 (SK-MEL-28 melanoma) greater than 100 µM and a TGI (SK-MEL-28 melanoma) greater than 100 µM. For the same compound, the GI50 (SN12C renal) was 45.1 µM, the TGI (SN12C renal) was greater than 100 µM and the GI50 (NCI/ADR-RES ovarian) was 98.2 µM. For the same compound, the TGI (NCI/ADR-RES ovarian) was greater than 100 µM, the GI50 (BT-549 breast) was greater than 77.5 µM and the TGI (BT-549 breast) was greater than 100 µM. For the same compound, the GI50 (IGROV1 ovarian) was 70 µM, the TGI (IGROV1 ovarian) was greater than 100 µM and the GI50 (ACHN renal) was greater than 77.3 µM. It also gave a TGI (ACHN renal) greater than 100 µM, a GI50 (NCI-H460 lung) of 58.7 µM and a TGI (NCI-H460 lung) greater than 100 µM. The GI50 (OVCAR-3 ovarian) was greater than 66.2 µM and the TGI (OVCAR-3 ovarian) was greater than 93.3 µM.
